Several values for one entry are separate records, joined by “and”; a condition that tells them apart may be missing. Equal values may be shown once. Read-outs that look alike come from different tables or passages of the source.
Experiments:
[1] = biological target: T1, ovine COX-1 (Ovis aries, UniProt P05979); experiment: In vitro COX-1 inhibitory assay; type: biochemical
T1 sequence (P05979 25-600): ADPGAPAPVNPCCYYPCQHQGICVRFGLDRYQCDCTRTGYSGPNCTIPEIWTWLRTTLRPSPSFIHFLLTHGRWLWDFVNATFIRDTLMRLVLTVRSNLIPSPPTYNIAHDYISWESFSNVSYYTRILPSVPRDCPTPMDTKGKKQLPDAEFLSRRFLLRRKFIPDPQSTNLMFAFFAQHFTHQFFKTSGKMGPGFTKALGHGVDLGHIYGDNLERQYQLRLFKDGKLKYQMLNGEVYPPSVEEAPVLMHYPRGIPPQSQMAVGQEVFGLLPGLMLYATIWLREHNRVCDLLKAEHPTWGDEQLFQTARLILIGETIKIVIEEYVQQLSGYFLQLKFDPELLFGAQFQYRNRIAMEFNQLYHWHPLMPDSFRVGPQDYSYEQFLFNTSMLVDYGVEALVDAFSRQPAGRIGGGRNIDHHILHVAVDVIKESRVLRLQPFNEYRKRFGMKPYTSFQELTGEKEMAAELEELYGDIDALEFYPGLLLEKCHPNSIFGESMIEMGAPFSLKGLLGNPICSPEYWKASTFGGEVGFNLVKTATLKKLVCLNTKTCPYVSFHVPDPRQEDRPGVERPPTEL

[2] = biological target: T2, human recombinant COX-2 (Homo sapiens, UniProt P35354); experiment: In vitro COX-2 inhibitory assay; type: biochemical; details: for Enhancement of anti-COX-2 activity by p-Cl on benzylidine: compared with unsubstituted compounds 4b, 4c, 4g, 4h respectively
T2 sequence (P35354 18-604): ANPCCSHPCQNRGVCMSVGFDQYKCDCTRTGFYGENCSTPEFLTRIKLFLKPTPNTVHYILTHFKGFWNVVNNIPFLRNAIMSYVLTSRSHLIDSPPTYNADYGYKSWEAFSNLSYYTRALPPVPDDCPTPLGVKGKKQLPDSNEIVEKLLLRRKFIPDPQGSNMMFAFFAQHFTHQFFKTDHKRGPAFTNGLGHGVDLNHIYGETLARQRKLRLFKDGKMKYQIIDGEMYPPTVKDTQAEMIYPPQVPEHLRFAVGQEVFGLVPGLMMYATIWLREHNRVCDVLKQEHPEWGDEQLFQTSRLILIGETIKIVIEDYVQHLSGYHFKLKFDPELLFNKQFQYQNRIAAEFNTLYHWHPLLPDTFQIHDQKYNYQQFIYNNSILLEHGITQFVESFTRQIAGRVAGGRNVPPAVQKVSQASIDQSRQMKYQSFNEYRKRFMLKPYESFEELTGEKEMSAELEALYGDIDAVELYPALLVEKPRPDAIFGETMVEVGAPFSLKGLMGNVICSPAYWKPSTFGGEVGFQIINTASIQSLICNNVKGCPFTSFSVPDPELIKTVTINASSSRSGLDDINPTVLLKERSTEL

[3] = biological target: T3, soybean 15-LOX (Glycine max, UniProt P08170); experiment: In vitro 15-LOX inhibitory assay; type: biochemical
T3 sequence (P08170 1-839): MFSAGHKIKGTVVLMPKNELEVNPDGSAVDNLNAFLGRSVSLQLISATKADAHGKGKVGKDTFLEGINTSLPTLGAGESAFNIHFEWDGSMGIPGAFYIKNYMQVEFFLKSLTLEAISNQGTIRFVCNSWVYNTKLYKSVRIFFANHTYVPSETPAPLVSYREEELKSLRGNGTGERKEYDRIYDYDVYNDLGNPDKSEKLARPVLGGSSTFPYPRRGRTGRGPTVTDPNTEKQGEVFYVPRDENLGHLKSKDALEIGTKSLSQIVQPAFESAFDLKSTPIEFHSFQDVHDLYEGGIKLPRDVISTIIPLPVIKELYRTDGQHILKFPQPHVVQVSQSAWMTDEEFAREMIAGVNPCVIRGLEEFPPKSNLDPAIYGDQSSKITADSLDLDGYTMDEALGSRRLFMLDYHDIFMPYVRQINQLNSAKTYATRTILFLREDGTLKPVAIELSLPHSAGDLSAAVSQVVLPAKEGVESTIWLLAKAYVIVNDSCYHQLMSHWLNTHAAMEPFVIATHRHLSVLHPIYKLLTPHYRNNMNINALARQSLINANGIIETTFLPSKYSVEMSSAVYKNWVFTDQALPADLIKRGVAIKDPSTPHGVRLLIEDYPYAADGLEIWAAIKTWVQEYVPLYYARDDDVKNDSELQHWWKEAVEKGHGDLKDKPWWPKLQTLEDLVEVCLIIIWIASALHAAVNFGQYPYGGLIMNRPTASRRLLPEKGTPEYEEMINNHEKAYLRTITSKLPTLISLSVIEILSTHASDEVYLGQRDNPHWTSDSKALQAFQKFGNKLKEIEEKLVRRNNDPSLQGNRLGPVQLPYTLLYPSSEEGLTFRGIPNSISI

[4] = Cell viability assay; type: cell-based, murine; details: mouse, RAW 264.7 macrophage cells
[5] = tested on: LPS-induced TNF-α production in RAW 264.7 cells; details: for TNF-α level: cells treated with 25 μM compound
[6] = tested on: LPS-induced IL-6 production in RAW 264.7 cells; details: LPS-activated RAW 264.7; for IL-6 level: cells treated with 25 μM compound
[7] = tested on: LPS-induced ROS production in RAW 264.7 cells; experiment: cells; details: Mus musculus, RAW264.7, 18 h, read-out: ROS (IC50)
[8] = tested on: NF-κB activation in RAW 264.7 macrophages; experiment: NF-κB activation in LPS-activated RAW 264.7 macrophages; type: cell-based, murine; details: 25 μM pretreatment, Western blot
[9] = tested on: LPS-induced ROS production in RAW 264.7 cells; details: read-out: ROS (IC50), LPS (1 μg/mL) 18 h, mean ± SEM
[10] = read-out: COX1, IC50, ovine COX-1, mean ± SEM
[11] = read-out: 15-LOX IC50, soybean 15-LOX

Row | Compound | IC50 [1] [µM] | IC50 [2] [µM] | SI (Selectivity index = COX-1 IC50/COX-2 IC50) ([2]; COX-1 IC50/COX-2 IC50) | Enhancement of anti-COX-2 activity by p-Cl on benzylidine [2] [folds] | IC50 [3] [µM] | viability at 50 µM [4] [%] | TNF-α level ([5]; LPS-activated RAW 264.7) | IL-6 level [6] | IC50 [7] [µM] | LPS-mediated increase in NF-κB activation (phospho/total NF-κB) [8] | Lowering of TNF-α level ([5]; LPS-activated RAW 264.7) | Lowering of IL-6 level [6] | IC50 [1, 10] [µM] | SI (Selectivity index = COX-1 IC50/COX-2 IC50) [2] | IC50 ([2]; read-out: COX2, IC50) [µM] | IC50 [3, 11] [µM] | IC50 [9] [µM] | TNF-α inhibition, fold more potent than celecoxib ([5]; vs celecoxib) [fold]
1 | O=C(CSC1=N/C(=C\c2ccc(Cl)cc2)C(=O)N1c1ccccc1)Nc1ccc(F)cc1 [Compound 4k, (Z)-2-{[4-(4-Chlorobenzylidene)-5-oxo-1-phenyl-4,5-dihydro-1H-imidazol-2-yl]thio}-N-(4-fluorophenyl)acetamide] | 13 ± 1.82 | 0.07 ± 0.034 | 186.28 | 1.85 | 2.17 ± 1.04 | 83 to 105 | 28.29 ± 14.76 pg/mL | 27.57 ± 14.76 pg/mL | 71 ± 1.55 | – | – | – | – | – | – | – | – | –
2 | COc1ccc(NC(=O)CSC2=N/C(=C\c3ccccc3)C(=O)N2c2ccccc2)cc1 [Compound 4f, (Z)-2-[(4-Benzylidene-5-oxo-1-phenyl-4,5-dihydro-1H-imidazol-2-yl)thio]-N-(4-methoxyphenyl)acetamide] | 11 ± 1.53 | 0.08 ± 0.04 | 131.59 | – | 3.96 ± 1.49 | 83 to 105 | 22.94 ± 6.32 pg/mL | 22.21 pg/mL and 22.21 ± 6.32 pg/mL | 22.8 ± 1.32 | attenuated | ~ 80% | ~ 80% | – | – | – | – | – | –
3 | COc1cc(NC(=O)CSC2=N/C(=C\c3ccccc3)C(=O)N2c2ccccc2)cc(OC)c1OC [Compound 4g, (Z)-2-[(4-Benzylidene-5-oxo-1-phenyl-4,5-dihydro-1H-imidazol-2-yl)thio]-N-(3,4,5-trimethoxyphenyl) acetamide] | – | – | – | – | – | – | 12.23 pg/mL and 12.23 ± 3.09 pg/mL | 11.51 ± 3.09 pg/mL | – | – | – | – | 9.83 ± 1.65 | 68.07 | 0.14 ± 0.073 | 2.82 ± 1.27 | 65.9 ± 1.55 | ~2
4 | Cc1ccc(NC(=O)CSC2=N/C(=C\c3ccccc3)C(=O)N2c2ccccc2)cc1 [Compound 4e, (Z)-2-[(4-Benzylidene-5-oxo-1-phenyl-4,5-dihydro-1H-imidazol-2-yl)thio]-N-(4-tolyl) acetamide] | – | – | – | – | – | – | 58.19 ± 23.16 pg/mL | 34.33 ± 1.82 pg/mL | – | – | – | – | 9.12 ± 1.4 | 90.85 | 0.1 ± 0.048 | 5.14 ± 2.48 | 118 ± 2.36 | –
5 | O=C(CSC1=N/C(=C\c2ccc(Cl)cc2)C(=O)N1c1ccccc1)Nc1ccc(Cl)cc1 [Compound 4l, (Z)-2-{[4-(4-Chlorobenzylidene)-5-oxo-1-phenyl-4,5-dihydro-1H-imidazol-2-yl]thio}-N-(4-chlorophenyl)acetamide] | 12.3 ± 1.84 | 0.08 ± 0.035 | 154.73 | 1.75 | 2.69 ± 1.29 | 83 to 105 | 26.47 ± 5.33 pg/mL | 25.57 pg/mL and 25.75 ± 5.33 pg/mL | 52.7 ± 1.35 | attenuated | – | – | – | – | – | – | – | –
6 | O=C(CSC1=N/C(=C\c2ccccc2)C(=O)N1c1ccccc1)Nc1ccc(F)cc1 [Compound 4b, (Z)-2-[(4-Benzylidene-5-oxo-1-phenyl-4,5-dihydro-1H-imidazol-2-yl)thio]-N-(4-fluorophenyl) acetamide] | – | – | – | – | – | – | 51.63 ± 10.35 pg/mL | 50.90 ± 10.35 pg/mL | – | – | – | – | 12.6 ± 1.78 | 99.06 | 0.13 ± 0.068 | 3.13 ± 1.49 | 23.8 ± 1.44 | –
7 | O=C(CSC1=N/C(=C\c2ccccc2)C(=O)N1c1ccccc1)Nc1ccc(Br)cc1 [Compound 4d, (Z)-2-[(4-Benzylidene-5-oxo-1-phenyl-4,5-dihydro-1H-imidazol-2-yl)thio]-N-(4-bromophenyl) acetamide] | – | – | – | – | – | – | 27.08 pg/mL and 27.08 ± 4.22 pg/mL | 26.35 pg/mL and 26.35 ± 4.22 pg/mL | – | – | – | – | 8.14 ± 1.53 | 64.13 | 0.13 ± 0.071 | 5.14 ± 2.48 | 62.1 ± 1.51 | –

— paper PMC11073913 (Archiv der Pharmazie, 2024)
